The source of these data is patent publication US20200181095A1, “SELECTIVE MATRIX METALLOPROTEINASE-13 INHIBITORS” (FLORIDA ATLANTIC UNIVERSITY BOARD OF TRUSTEES, priority 2017, published 2020).

Type in all cases: biochemical
Test [1] has as its target T1, MMP-13 (Homo sapiens, UniProt P45452).
T1 construct: purchased R&D Systems 511-MM
Nature of the test: MMP-13 IC50 enzyme assay with fTHP-15 substrate. The settings on record: for IC50: fTHP substrate. The procedure: Inhibitor kinetics: Inhibition experiments were conducted as described previously.^3 Briefly, fTHP-15, MMP-13, and inhibitor working solutions were prepared in EAB.
The enzyme was allowed to incubate with the test compounds for 30 min at 25° C. The assays were initiated by addition of 5 μL of fTHP-15 or Knight substrate and immediately placed in the microplate reader to record fluorescence.
To determine IC50 values of each compound, the relative fluorescence units (RFU) from wells containing MMP-13, fTHP-15, and inhibitors were plotted vs. no-enzyme and untreated controls.

Test [2] has as its target T1, MMP-13. Nature of the test: MMP-13 inhibition constant (Ki) determination, fTHP-15. The settings on record: fTHP-15 substrate, 4 nM MMP-13, mixed inhibition model. Here is the method:
Rates of hydrolysis were obtained from plots of fluorescence versus time using data points from only the linear portion of the hydrolysis curve.
KM values were determined by nonlinear regression analysis using the one-site hyperbolic binding model^4 and additionally evaluated by linear analysis. All Ki values were determined by nonlinear regression (hyperbolic equation) analysis using the mixed inhibition model, which allows for simultaneous determination of the mechanism of inhibition, The mechanism of inhibition was determined using the “α” parameter derived from a mixed-model inhibition by GraphPad Prism. The mechanism of inhibition was additionally confirmed by Lineweaver-Burke plots.

The next test addresses T2, MMP-8 (Homo sapiens, UniProt P22894).
T2 construct: purchased R&D Systems
Nature of the test: Selectivity assay MMP-8 (fTHP-15). The following applies: 200 nM. The procedure: (§1) All enzymes were purchased from R&D Systems and activated according to manufacturer's instructions. Upon activation, each enzyme was diluted in EAB to […] and stored at −80° C. until further use. […]

The next test has as its target T3, MMP-2 (Homo sapiens, UniProt P08253).
T3 construct: purchased R&D Systems
Nature of the test: Selectivity assay MMP-2 (fTHP-15). The settings on record: 200 nM. Here is the method: as §1

For the next test, the target named is T4, Factor-XA (Homo sapiens, UniProt P00742).
T4 construct: Factor-XA
Nature of the test: Protease selectivity profiling. Also noted: inhibition: dose or concentration left out as unconfirmed.

The target of another test is BACE-1 (Homo sapiens, UniProt P56817). Nature of the test: Protease selectivity profiling. The arrangement: inhibition: dose or concentration left out as unconfirmed.
Chain of BACE-1 (P56817 46-501, species assumed): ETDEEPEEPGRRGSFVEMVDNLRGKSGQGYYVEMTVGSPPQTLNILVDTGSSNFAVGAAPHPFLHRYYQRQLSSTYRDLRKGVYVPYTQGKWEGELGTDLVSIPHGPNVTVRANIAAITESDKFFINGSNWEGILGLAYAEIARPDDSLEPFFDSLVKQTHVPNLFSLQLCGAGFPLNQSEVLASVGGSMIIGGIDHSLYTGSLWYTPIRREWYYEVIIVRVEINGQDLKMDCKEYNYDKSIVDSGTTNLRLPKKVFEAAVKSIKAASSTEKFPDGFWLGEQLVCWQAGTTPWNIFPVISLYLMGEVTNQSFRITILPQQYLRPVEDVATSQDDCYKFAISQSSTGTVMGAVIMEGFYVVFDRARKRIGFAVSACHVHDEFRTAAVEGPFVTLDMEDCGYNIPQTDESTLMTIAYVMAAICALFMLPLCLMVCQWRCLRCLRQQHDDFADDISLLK
The target of the next test is MMP-7 (Homo sapiens, UniProt P09237). Nature of the test: Protease selectivity profiling. Also noted: inhibition: dose or concentration left out as unconfirmed.
The target of another test is Cathepsin-K (Homo sapiens, UniProt P43235). Nature of the test: Protease selectivity profiling. Also noted: inhibition: dose or concentration left out as unconfirmed.
Chain of Cathepsin-K (P43235 115-329, species assumed): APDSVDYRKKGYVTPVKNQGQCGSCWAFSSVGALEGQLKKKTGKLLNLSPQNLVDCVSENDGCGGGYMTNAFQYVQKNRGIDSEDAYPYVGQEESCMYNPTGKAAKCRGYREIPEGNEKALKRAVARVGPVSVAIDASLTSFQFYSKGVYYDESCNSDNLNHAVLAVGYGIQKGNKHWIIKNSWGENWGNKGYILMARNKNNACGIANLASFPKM
For another test, the target named is ACE2 (Homo sapiens, UniProt Q9BYF1). Nature of the test: Protease selectivity profiling. The arrangement: inhibition: dose or concentration left out as unconfirmed.
Another test concerns the target Cathepsin-D (Homo sapiens, UniProt P07339). Nature of the test: Protease selectivity profiling. Also noted: inhibition: dose or concentration left out as unconfirmed.
The target in test [3] is T5, MMP-12 (Homo sapiens, UniProt P39900). Nature of the test: Additional specificity assay, 10-point dilution IC50.
T5 sequence (P39900 106-470, species assumed): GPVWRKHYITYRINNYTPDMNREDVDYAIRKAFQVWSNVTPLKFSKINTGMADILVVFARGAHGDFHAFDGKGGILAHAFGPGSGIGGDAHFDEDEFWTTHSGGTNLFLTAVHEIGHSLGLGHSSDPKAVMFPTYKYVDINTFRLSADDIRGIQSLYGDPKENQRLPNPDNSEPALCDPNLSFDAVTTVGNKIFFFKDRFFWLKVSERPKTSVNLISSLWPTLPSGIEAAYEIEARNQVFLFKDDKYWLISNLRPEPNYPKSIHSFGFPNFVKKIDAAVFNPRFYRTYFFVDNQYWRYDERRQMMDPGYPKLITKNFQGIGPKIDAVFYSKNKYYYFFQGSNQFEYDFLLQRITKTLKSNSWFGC
The target of another test is ACE (Homo sapiens, UniProt P12821). Nature of the test: Protease selectivity profiling. Also noted: inhibition: dose or concentration left out as unconfirmed.
Chain of ACE (P12821 30-1306, species assumed): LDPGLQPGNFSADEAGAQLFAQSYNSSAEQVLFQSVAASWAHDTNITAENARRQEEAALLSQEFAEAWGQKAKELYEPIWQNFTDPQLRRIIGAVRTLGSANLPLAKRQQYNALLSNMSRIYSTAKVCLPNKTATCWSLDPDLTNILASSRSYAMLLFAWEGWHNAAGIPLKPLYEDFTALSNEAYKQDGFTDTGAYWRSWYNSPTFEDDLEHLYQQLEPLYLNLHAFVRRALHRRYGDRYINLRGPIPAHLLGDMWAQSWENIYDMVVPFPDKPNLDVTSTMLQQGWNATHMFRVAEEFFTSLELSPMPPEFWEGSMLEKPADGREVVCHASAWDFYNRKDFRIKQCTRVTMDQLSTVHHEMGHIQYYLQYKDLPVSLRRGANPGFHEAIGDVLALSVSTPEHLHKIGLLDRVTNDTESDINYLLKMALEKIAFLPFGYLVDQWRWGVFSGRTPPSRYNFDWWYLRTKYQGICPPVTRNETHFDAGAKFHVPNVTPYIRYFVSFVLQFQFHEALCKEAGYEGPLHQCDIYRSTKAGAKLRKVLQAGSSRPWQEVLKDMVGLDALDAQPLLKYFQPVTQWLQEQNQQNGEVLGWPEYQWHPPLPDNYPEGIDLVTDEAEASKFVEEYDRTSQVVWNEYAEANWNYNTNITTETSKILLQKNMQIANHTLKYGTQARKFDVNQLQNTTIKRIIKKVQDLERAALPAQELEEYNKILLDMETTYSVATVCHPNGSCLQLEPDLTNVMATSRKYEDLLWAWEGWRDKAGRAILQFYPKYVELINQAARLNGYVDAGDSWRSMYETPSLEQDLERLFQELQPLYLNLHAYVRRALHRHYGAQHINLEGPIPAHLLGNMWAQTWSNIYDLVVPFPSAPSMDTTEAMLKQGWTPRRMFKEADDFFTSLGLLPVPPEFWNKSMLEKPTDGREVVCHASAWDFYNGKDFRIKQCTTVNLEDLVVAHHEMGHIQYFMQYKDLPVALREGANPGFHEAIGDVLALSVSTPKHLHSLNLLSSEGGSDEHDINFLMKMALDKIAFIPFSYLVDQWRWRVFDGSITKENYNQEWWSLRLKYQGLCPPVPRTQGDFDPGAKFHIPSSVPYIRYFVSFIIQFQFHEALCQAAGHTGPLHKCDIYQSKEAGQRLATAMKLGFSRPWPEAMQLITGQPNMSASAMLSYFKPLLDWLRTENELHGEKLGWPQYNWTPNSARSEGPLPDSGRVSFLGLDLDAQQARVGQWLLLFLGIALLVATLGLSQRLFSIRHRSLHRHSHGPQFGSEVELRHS
The target of another test is Cathepsin-S (Homo sapiens, UniProt P25774). Nature of the test: Protease selectivity profiling. The arrangement: inhibition: dose or concentration left out as unconfirmed.
A further test addresses Caspase-7 (Homo sapiens, UniProt P55210). Nature of the test: Protease selectivity profiling. Also noted: inhibition: dose or concentration left out as unconfirmed.
A further test deals with MMP-3 (Homo sapiens, UniProt P08254). Nature of the test: Protease selectivity profiling. The settings on record: single stranded peptide substrate; inhibitor (text 1 μM); duplicates.
The target of another test is Furin (Homo sapiens, UniProt P09958). Nature of the test: Protease selectivity profiling. Also noted: inhibition: dose or concentration left out as unconfirmed.
Chain of Furin (P09958 108-794, species assumed): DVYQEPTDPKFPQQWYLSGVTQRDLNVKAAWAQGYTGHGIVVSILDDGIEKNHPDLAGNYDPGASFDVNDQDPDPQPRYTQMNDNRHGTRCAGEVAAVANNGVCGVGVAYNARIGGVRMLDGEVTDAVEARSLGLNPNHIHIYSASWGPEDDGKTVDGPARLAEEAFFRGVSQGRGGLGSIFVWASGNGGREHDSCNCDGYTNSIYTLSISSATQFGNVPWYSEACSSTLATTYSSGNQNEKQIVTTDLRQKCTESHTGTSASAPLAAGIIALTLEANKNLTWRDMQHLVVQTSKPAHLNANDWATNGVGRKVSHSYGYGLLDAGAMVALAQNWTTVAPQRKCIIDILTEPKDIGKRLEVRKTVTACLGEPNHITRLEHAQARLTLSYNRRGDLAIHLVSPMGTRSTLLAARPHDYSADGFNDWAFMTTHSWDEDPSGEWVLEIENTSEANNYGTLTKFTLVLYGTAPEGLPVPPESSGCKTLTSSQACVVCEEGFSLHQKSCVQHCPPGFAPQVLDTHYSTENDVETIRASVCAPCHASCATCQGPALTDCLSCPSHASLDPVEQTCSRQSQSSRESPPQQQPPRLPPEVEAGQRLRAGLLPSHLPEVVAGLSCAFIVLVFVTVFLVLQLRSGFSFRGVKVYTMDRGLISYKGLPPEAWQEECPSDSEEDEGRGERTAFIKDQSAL
Another test has as its target Thrombin (Homo sapiens, UniProt P00734). Nature of the test: Protease selectivity profiling. The following applies: read-out: % Inhibition Thrombin.
A further test has as its target Caspase-2 (Homo sapiens, UniProt P42575). Nature of the test: Protease selectivity profiling. Also noted: inhibition: dose or concentration left out as unconfirmed.
The next test deals with Caspase-1 (Homo sapiens, UniProt P29466). Nature of the test: Protease selectivity profiling. The arrangement: inhibition: dose or concentration left out as unconfirmed.
Another test deals with Neprilysin (Homo sapiens, UniProt P08473). Nature of the test: Protease selectivity profiling. The arrangement: inhibition: dose or concentration left out as unconfirmed.
Chain of Neprilysin (P08473 whole entry, species assumed): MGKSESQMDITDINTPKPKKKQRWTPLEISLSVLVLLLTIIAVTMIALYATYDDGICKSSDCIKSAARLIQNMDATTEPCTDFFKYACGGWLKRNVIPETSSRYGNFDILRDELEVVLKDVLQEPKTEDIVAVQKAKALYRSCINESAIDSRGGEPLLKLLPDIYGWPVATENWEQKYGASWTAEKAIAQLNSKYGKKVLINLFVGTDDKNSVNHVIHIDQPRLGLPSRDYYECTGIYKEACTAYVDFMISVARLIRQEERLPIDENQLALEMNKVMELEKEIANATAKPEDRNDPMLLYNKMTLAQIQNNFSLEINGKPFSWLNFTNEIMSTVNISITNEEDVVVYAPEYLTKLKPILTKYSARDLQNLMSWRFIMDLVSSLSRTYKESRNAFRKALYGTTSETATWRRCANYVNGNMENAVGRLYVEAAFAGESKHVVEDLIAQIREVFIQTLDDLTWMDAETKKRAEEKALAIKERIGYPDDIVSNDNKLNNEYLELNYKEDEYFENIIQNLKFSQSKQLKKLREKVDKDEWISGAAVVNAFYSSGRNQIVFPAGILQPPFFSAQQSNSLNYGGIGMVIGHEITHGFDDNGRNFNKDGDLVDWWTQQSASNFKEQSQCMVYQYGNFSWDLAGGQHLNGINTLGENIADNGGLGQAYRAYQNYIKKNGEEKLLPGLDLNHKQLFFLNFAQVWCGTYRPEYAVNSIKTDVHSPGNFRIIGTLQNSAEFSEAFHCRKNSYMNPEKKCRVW
The target in test [4] is T5, MMP-12. Nature of the test: Protease selectivity profiling. The settings on record: single stranded peptide substrate; inhibitor 1 mM (footnote; text 1 μM); duplicates.
Another test concerns the target Cathepsin-L (Homo sapiens, UniProt P07711). Nature of the test: Protease selectivity profiling. The arrangement: inhibition: dose or concentration left out as unconfirmed.
The next test deals with IDE (Homo sapiens, UniProt P14735). Nature of the test: Protease selectivity profiling. Also noted: inhibition: dose or concentration left out as unconfirmed.
A further test has as its target Caspase-5 (Homo sapiens, UniProt P51878). Nature of the test: Protease selectivity profiling. Also noted: inhibition: dose or concentration left out as unconfirmed.
The target of the next test is ADAM10 (Homo sapiens, UniProt O14672). Nature of the test: Protease selectivity profiling. Also noted: inhibition: dose or concentration left out as unconfirmed.
The next test addresses TACE (Homo sapiens, UniProt P78536). Nature of the test: Protease selectivity profiling. Also noted: inhibition: dose or concentration left out as unconfirmed.
The target of another test is uPA (Homo sapiens, UniProt P00749). Nature of the test: Protease selectivity profiling. The arrangement: inhibition: dose or concentration left out as unconfirmed.
A further test deals with Caspase-3 (Homo sapiens, UniProt P42574). Nature of the test: Protease selectivity profiling. Also noted: inhibition: dose or concentration left out as unconfirmed.
Chain of Caspase-3 (P42574 29-175 limits assumed, species assumed): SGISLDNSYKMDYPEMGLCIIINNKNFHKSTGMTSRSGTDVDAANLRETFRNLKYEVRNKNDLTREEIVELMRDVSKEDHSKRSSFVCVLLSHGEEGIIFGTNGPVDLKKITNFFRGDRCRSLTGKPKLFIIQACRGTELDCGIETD
Chain of Caspase-3 (P42574 176-277 limits assumed, species assumed): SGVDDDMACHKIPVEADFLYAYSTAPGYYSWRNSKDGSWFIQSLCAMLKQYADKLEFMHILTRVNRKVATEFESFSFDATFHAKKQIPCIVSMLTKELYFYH
A further test concerns the target Caspase-6 (Homo sapiens, UniProt P55212). Nature of the test: Protease selectivity profiling. Also noted: inhibition: dose or concentration left out as unconfirmed.
The mark [5] stands for this setting: single stranded peptide substrate, inhibitor 1 µM, duplicates.

“And” between values parts separate entries of the source, which are not always exact repeats. Equal values may be shown once. Read-outs that look alike come from different tables or passages of the source.

Chain of Caspase-2 (P42575 170-325 limits assumed, species assumed): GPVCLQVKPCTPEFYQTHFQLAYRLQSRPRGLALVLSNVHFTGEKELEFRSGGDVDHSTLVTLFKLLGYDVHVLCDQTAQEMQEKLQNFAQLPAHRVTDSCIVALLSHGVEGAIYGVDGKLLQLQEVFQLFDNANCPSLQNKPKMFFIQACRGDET
Chain of Caspase-2 (P42575 348-452 limits assumed, species assumed): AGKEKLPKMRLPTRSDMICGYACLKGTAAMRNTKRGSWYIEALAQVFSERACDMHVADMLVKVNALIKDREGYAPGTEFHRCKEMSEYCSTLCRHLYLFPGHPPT
Chain of Caspase-6 (P55212 24-179 limits assumed, species assumed): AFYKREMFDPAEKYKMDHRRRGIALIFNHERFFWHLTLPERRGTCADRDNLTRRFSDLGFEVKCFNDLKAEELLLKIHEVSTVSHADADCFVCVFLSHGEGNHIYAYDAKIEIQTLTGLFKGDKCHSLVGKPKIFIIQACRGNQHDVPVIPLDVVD
Chain of Caspase-6 (P55212 194-293 limits assumed, species assumed): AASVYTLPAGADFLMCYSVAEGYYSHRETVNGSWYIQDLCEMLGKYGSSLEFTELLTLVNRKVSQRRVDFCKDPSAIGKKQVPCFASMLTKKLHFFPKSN
Chain of Caspase-7 (P55210 24-198 limits assumed, species assumed): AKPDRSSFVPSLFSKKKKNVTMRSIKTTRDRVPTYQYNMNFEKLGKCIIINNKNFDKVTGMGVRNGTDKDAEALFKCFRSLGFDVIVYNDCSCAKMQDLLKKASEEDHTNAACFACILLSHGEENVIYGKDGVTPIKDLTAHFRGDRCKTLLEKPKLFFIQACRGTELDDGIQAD
Chain of Caspase-7 (P55210 207-303 limits assumed, species assumed): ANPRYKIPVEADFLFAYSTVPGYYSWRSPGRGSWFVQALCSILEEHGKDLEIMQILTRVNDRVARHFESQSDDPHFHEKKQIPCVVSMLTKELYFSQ

One may read the IC50 as the concentration at which inhibition is half-maximal. With `CNC(=O)[C@H](NC(=O)c1ccc(-c2ccc(CSc3nc4c(c(=O)[nH]3)CCC4)cc2)o1)C(C)C` [(R)-17a], at MMP-13 [1], the “loss of inhibition activity vs. MMP-13 compared to the (S)-enantiomer” value is listed as “ca. 12 fold” and the midpoint of inhibition, the IC50, lay at 72 nM.
Broadly, the Ki is a measure of affinity in units of concentration, obtained from inhibition or displacement. Molecule `CC(C)[C@H](NS(=O)(=O)c1ccc(-c2ccc(CSc3nc4c(c(=O)[nH]3)CCC4)cc2)cc1)C(=O)O` [(S)-10a] registered an IC50 against MMP-13 [1] of 2.2 nM. The same molecule had a Ki at MMP-13 [2] of 2.3 nM.
With `CNC(=O)[C@@H](NC(=O)c1ccc(-c2ccc(CSc3nc4c(c(=O)[nH]3)CCC4)cc2)o1)C(C)C` [(S)-17a], the “inhibition of MMP-8 in single dose assay” value against MMP-8 is listed as “moderately active inhibitor”. In addition, on MMP-13 [1], the “improvement of MMP-13 inhibition potency compared to 5” value is on record as ~1,000 fold and the IC50 is 5.9 nM. Moreover, the “inhibition of MMP-2 in single dose assay” value against MMP-2 is “moderately active inhibitor”.
In turn, `O=C(O)CNS(=O)(=O)c1ccc(-c2ccc(CSc3nc4c(c(=O)[nH]3)CCC4)cc2)cc1` [Compound 10b] came in with a half-maximal inhibitory concentration (IC50) against MMP-13 [1] of 1.6 nM. Also, the Ki at MMP-13 [2] was found to be 1.8 nM.
Usually inhibition stands for the relative decrease from the control value, in per cent. `NCCNS(=O)(=O)c1ccc(-c2ccc(CSc3nc4c(c(=O)[nH]3)CCC4)cc2)cc1` [Compound 10d]: the inhibition at 1 µM against Factor-XA (setting [5]) turned out to be 3%; against BACE-1 (setting [5]) it was 1%; against MMP-7 (setting [5]) it was 7%; on Cathepsin-K (setting [5]), 0%; at ACE2 (setting [5]) it was 1%; on Cathepsin-D (setting [5]) it was 3%. Moreover, the inhibition at 1 µM worked out at 7% against ACE (setting [5]); 12% against Cathepsin-S (setting [5]); 1% on Caspase-7 (setting [5]); 0% against Furin (setting [5]); 0% against Caspase-2 (setting [5]); 1% at Caspase-1 (setting [5]). In addition, the inhibition at 1 µM on Neprilysin (setting [5]) came to 3%; at Cathepsin-L (setting [5]), 9%; on IDE (setting [5]) it was 0%; against Caspase-5 (setting [5]) it was 0%; against ADAM10 (setting [5]), 0%; at TACE (setting [5]) it was 4%. Besides, the values for the inhibition at 1 µM on uPA (setting [5]), at Caspase-3 (setting [5]) and on Caspase-6 (setting [5]) were 3%, 0% and 0%, respectively. For the same molecule, the “less active as inhibitor of MMP-12 than as MMP-13 inhibitor” value at MMP-12 [3] was found to be 140 fold. The IC50 against MMP-12 [3] (fTHP substrates (footnote), 10-point dilution) was 470 nM and 467 nM. Besides, the inhibition on MMP-3 was 13%; at Thrombin (single stranded peptide substrate, inhibitor (text 1 μM), duplicates), -3%. Also, the inhibition at 1000 µM at MMP-12 [4] worked out at 40%.
On MMP-13 [1], `CC(C)[C@@H](NS(=O)(=O)c1ccc(-c2ccc(CSc3nc4c(c(=O)[nH]3)CCC4)cc2)cc1)C(=O)O` [Compound (R)-10a] yielded an IC50 of 2.4 nM. The molecule also came in with a Ki on MMP-13 [2] of 1.6 nM.
For the molecule `CNC(=O)[C@@H](NC(=O)c1ccc(-c2ccc(CSc3nc4c(c(=O)[nH]3)CCC4)c(F)c2)o1)C(C)C` [Compound (S)-17b], the inhibition on Factor-XA (read-out: % Inhibition Factor-XA) worked out at 0%; on BACE-1 (read-out: % Inhibition BACE-1), 0%; at MMP-7 (read-out: % Inhibition MMP-7), 4%; at Cathepsin-K (read-out: % Inhibition Cathepsin-K), 2%; at ACE2 (read-out: % Inhibition ACE2) it was 0%; on Cathepsin-D (read-out: % Inhibition Cathepsin-D), 0%. Also, the inhibition on ACE (read-out: % Inhibition ACE) was 0%; at Cathepsin-S (read-out: % Inhibition Cathepsin-S), 2%; at Caspase-7 (read-out: % Inhibition Caspase-7), 8%; at Furin (read-out: % Inhibition Furin), 0%; at Thrombin, -8%; at Caspase-2 (read-out: % Inhibition Caspase-2) it was 0%. The inhibition on Caspase-1 (read-out: % Inhibition Caspase-1) is 0%; on Neprilysin (read-out: % Inhibition Neprilysin) it was -6%; on Cathepsin-L (read-out: % Inhibition Cathepsin-L), 7%; at IDE (read-out: % Inhibition IDE), 0%; at Caspase-5 (read-out: % Inhibition Caspase-5), 0%; on ADAM10 (read-out: % Inhibition ADAM10), 0%. Moreover, the inhibition on TACE (read-out: % Inhibition TACE) was -3%; on uPA (read-out: % Inhibition uPA), 1%; at Caspase-3 (read-out: % Inhibition Caspase-3), 0%; on Caspase-6 (read-out: % Inhibition Caspase-6), 0%.
